One experiment addresses DPP1 of U937 cells (Homo sapiens (Human), UniProt P53634). The experiment in a line: Activity test of inhibiting DPP1 in U937 cells. Conditions: Gly-Phe-AFC probe, read-out: IC50, inhibitory activity on DPP1 of U937 cells. It is filed as cell-based. As for the experimental part:
Experimental Example 2: Activity Test of Inhibiting DPP1 in U937 Cells
Experimental Materials: • 1) Experimental reagents and consumables
The cell plate was placed in a carbon dioxide incubator for 1 day; • (3) after incubation for 1 hour, 100 μM Gly-Phe-AFC probe solution was added thereto, that is, 60 mM Gly-Phe-AFC probe stock solution was diluted with culture medium to 500 μM working solution; the working solution in 10 μL per well was transferred into the cell plate, and the cell plate was incubated in a carbon dioxide incubator for 1 hour;
3) the plate was read, and the data were analyzed: • (1) plate reading: after the cell incubation was completed, the cell plate was taken out, and the plate was read on Victor Nivo.
Using the equation (Sample−Min)/(Max−Min)×100% to convert the raw data into inhibition rate, the IC50 value might be obtained by curve fitting with four parameters (obtained by “log (inhibitor) vs. response—Variable slope” mode in GraphPad Prism).

For experiment [1], the target named is Recombinant human cathepsin C/DPP1. The experiment in a line: Inhibition effect test of DPP1 enzyme activity. In kind it is biochemical. The following applies: recombinant human cathepsin C/DPP1, Gly-Arg-AMC substrate 12.5 μM, 25° C. 60 minutes; read-out: IC50, inhibitory activity on DPP1 enzyme. How it is done: Experimental Example 1: Inhibition Effect Test of DPP1 Enzyme Activity
Recombinant human cathepsin C/DPP1 was purchased from R&D Systems;
Recombinant human cathepsin L (rhCathepsin L) was purchased from R&D Systems;
Gly-Arg-AMC (hydrochloride) was purchased from CAYMAN CHEMICAL COMPANY.
1× activation buffer: 5 mM DTT 0.01% (V/V) Triton X-100 (preparation for current use);
1× assay buffer: 50 mM NaCl 5 mM DTT 0.01% (V/V) Triton X-100 (preparation for current use);
1× activation buffer was used to dilute recombinant human cathepsin C/DPP1 enzyme and recombinant human cathepsin L (rhCathepsin L) enzyme to concentrations of 2 ng/μL and 0.4 ng/μL, respectively; equal volume of two working solutions of enzyme was taken, mixed well and incubated at 25° C. for 60 minutes;
the compounds to be tested were 5-fold diluted with a multi-channel pipette to the 8th concentration, i.e., diluted from 1 mM to 12.8 nM. Then 1× experimental buffer was used to dilute each compound to be tested by gradient into a 4% DMSO working solution. The working solution was added to corresponding wells for 5 μL/well, and duplicate experiment was set. The mixture was centrifuged at 1000 rpm for 1 minute;
5 μL/well of the enzyme mixture after incubation was taken and added to the white microwell plate. At this time, the amount of DPP1 enzyme in each well was 5 ng; 1× experimental buffer in 5 μL/well was added to the blank control well;
Gly-Arg-AMC (hydrochloride) was diluted to 25 μM with 1× assay buffer. The diluted mixture in 10 μL/well was added to a white microwell plate. The substrate concentration was 12.5 μM at this time, and the microplate was centrifuged in a centrifuge at 1000 rpm for 1 minute. […] After centrifugation, the microplate was covered with membrane and incubated at 25° C. for 60 minutes;
after incubation, fluorescence detection was performed using a multi-label analyzer with an excitation wavelength of 360 nm and an emission wavelength of 460 nm.
Using the equation (Sample−Min)/(Max−Min)×100% to convert the raw data into enzyme activity, the IC50 value might be obtained by curve fitting with four parameters (obtained by “log (inhibitor) vs. response—Variable slope” mode in GraphPad Prism).
Max: Contains recombinant human cathepsin C/DPP1, recombinant human cathepsin L (rhCathepsin L), and Gly-Arg-AMC (hydrochloride)
Min: No recombinant human cathepsin C/DPP1 and recombinant human cathepsin L (rhCathepsin L)

Chain of DPP1 of U937 cells (P53634 25-134): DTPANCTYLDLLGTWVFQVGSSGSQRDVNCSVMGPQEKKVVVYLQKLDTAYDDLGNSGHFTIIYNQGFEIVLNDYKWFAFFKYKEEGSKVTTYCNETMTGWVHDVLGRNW
Chain of DPP1 of U937 cells (P53634 231-394): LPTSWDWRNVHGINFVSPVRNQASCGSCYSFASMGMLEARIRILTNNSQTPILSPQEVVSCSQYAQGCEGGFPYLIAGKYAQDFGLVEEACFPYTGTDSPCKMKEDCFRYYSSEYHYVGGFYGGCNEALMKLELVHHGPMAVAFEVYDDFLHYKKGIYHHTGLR
Chain of DPP1 of U937 cells (P53634 395-463): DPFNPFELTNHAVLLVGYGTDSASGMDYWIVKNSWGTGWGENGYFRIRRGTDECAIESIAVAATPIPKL

With `N#C[C@@H](Cc1ccc(-c2ccc3nccn3c2)cc1F)NC(=O)[C@@H]1CNCCCO1` [Compound 14], the figures for the IC50 (at DPP1 of U937 cells; in experiment [1]) were 2.79 nM and 28.1 nM, respectively.
Consider `N#C[C@@H](Cc1ccc(-c2cc(F)c3cn[nH]c3c2)cc1F)NC(=O)[C@@H]1CNCCCO1` [Compound 19], for which the figures for the IC50 (at DPP1 of U937 cells; in experiment [1]) were 8.7 nM and 4.55 nM, respectively.
Turning to `N#C[C@H](Cc1ccc(-c2ccc3cnn(C4CCOCC4)c3c2)cc1F)NC(=O)[C@@H]1CNCCCO1` [Compound 12], the IC50 on DPP1 of U937 cells is 1.81 nM; in experiment [1] it was 2.38 nM.
Consider `Cn1nnc2ccc(-c3ccc(C[C@@H](C#N)NC(=O)[C@@H]4CNCCCO4)cc3)cc21` [Compound 4], for which the concentration for half-maximal inhibition (IC50) was determined as 1.32 nM at DPP1 of U937 cells and 10.8 nM in experiment [1].
Take `CN1CCOc2ccc(-c3ccc(C[C@H](C#N)NC(=O)[C@@H]4CNCCCO4)c(F)c3)cc21` [Compound 15]: the IC50 in experiment [1] came out at 3.65 nM.
Take `Cn1nnc2ccc(-c3ccc(C[C@@H](C#N)NC(=O)[C@@H]4CNCCCO4)c(F)c3)cc21` [Compound 7]: the IC50 at DPP1 of U937 cells worked out at 2.49 nM; in experiment [1], 2.52 nM.
In the case of `Cn1ncc2ccc(-c3ccc(C[C@H](C#N)NC(=O)[C@@H]4CNCCCO4)c(Cl)c3)cc21` [Compound 16], the IC50 in experiment [1] came out at 9.18 nM.
For the compound `N#C[C@H](Cc1ccc(-c2ccc3nccn3c2)cc1F)NC(=O)[C@@H]1CNCCCO1` [Compound 13], the IC50 at DPP1 of U937 cells is 6.33 nM; in experiment [1], 20.4 nM.
Regarding `CN1CCC(n2ncc3ccc(-c4ccc(C[C@H](C#N)NC(=O)[C@@H]5CNCCCO5)c(F)c4)cc32)CC1` [Compound 24], the IC50 on DPP1 of U937 cells amounted to 3.12 nM; in experiment [1] it was 1 nM.
The corresponding values for `Cn1nc(F)c2ccc(-c3ccc(C[C@H](C#N)NC(=O)[C@@H]4CNCCCO4)c(F)c3)cc21` [Compound 18] are 5.43 nM and 1.23 nM.
For the compound `Cn1ncc2ccc(-c3ccc(C[C@@H](C#N)NC(=O)[C@@H]4CNCCCO4)cc3)cc21` [Compound 2], the IC50 at DPP1 of U937 cells amounted to 8.95 nM; in experiment [1], 26.8 nM.
Taken in the same sequence, the figures for `CC(C)n1ncc2ccc(-c3ccc(C[C@@H](C#N)NC(=O)[C@@H]4CNCCCO4)c(F)c3)cc21` [Compound 10] were 8.53 nM and 4.39 nM.
The corresponding values for `CN1Cc2cc(-c3ccc(C[C@@H](C#N)NC(=O)[C@@H]4CNCCCO4)cc3)ccc2C1=O` [Compound 5] are 9.32 nM and 28.3 nM.
As for `N#C[C@@H](Cc1ccc(-c2cnc3cc[nH]c3c2)cc1F)NC(=O)[C@@H]1CNCCCO1` [Compound 21], the IC50 turned out to be 9.27 nM at DPP1 of U937 cells and 17.3 nM in experiment [1].
As for `CC(C)n1ncc2ccc(-c3ccc(C[C@@H](C#N)NC(=O)[C@@H]4CNCCCO4)cc3)cc21` [Compound 9], in experiment [1], the IC50 was 14 nM.
As to `Cc1cc(-c2ccc3cnn(C)c3c2)ccc1C[C@H](C#N)NC(=O)[C@@H]1CNCCCO1` [Compound 17], the IC50 in experiment [1] was found to be 22.5 nM.
`N#C[C@@H](Cc1ccc(-c2ccc3cnn(C4CCNCC4)c3c2)cc1F)NC(=O)[C@@H]1CNCCCO1` [Compound 22]: the IC50 in experiment [1] was found to be 0.76 nM.

What is called IC50 is the point on the concentration scale where inhibition reaches its midpoint.
